Laboratory results reported in patent publication US8530493B2, “Indolopyridines as Eg5 kinesin modulators” (4SC AG, priority 2006, dated 2013).

These compounds were tested on RKO p21 uninduced (proliferating) colon adenocarcinoma cells (assay: Alamar Blue cell viability assay, RKO p21 uninduced (proliferating)). Conditions: Homo sapiens, Table B3, anti-proliferative/cytotoxic activity, 72 hours, read-out: −log EC50 RKO p21 uninduced (proliferating) (converted).
Format: cell-based
Procedure: The anti-proliferative/cytotoxic activity of the compounds described herein can be tested on subclones of RKO human colon adenocarcinoma cells (Schmidt et al., Oncogene 19, 2423-2429; 2000) using the Alamar Blue cell viability assay (described in O'Brien et al. Eur J Biochem 267, 5421-5426, 2000). The compounds are dissolved as 10 mM solutions in DMSO and subsequently diluted in semi-logarithmic steps. DMSO dilutions are further diluted 1:100 into Dulbecco's modified Eagle's medium (DMEM) containing 10% fetal calf serum to a final concentration twice as much as the final concentration in the test. RKO subclones are seeded into 96 well flat bottom plates at a density of 4000 cells per well in a volume of 50 μl per well. 24 hours after seeding the 50 μl each of the compound dilutions in DMEM medium are added into each well of the 96 well plate. Each compound dilution is tested as triplicates. Wells containing untreated control cells are filled with 50 μl DMEM medium containing 1% DMSO. The cells are then incubated with the substances for 72 hours at 37° C. in a humidified atmosphere containing 5% carbon dioxide. To determine the viability of the cells, 10 μl of an Alamar Blue solution (Biosource) are added and the fluorescence is measured at an extinction of 544 nm and an emission of 590 nm. For the calculation of the cell viability the emission value from untreated cells is set as 100% viability and the emission rates of treated cells are set in relation to the values of untreated cells. Viabilities are expressed as % values. The Graphpad Prism program is used for the calculation of EC50 values for anti-proliferative/cytotoxic activity out of the obtained dose-response curves.
To determine the cell cycle specific mode of action, subclones of RKO colon adenocarcinoma cells (RKOp21 or RKOp27 as described by Schmidt et al. in Oncogene 19, 2423-2429; 2000) are seeded into 96 well flat bottom plates at a density of 16000 cells per well in a volume of 50 μl per well in DMEM growth medium with 10% FCS containing 10 μM Ponasterone A. 24 hours after seeding the 50 μl each of the compound dilutions in DMEM medium are added into each well of the 96-well plate. Each compound dilution is tested as triplicates. Wells containing untreated control cells are filled with 50 μl DMEM medium containing 1% DMSO. The cells are then incubated with the substances for 72 hours at 37° C. in a humidified atmosphere containing 5% carbon dioxide. To determine the viability of the cells, 10 μl of an Alamar Blue solution (Biosource) are added and the fluorescence is measured at an extinction of 544 nm and an emission of 590 nm. For the calculation of the cell viability the emission value from untreated cells is set as 100% viability and the emission rates of treated cells are set in relation to the values of untreated cells. Viabilities are expressed as % values. The Graphpad Prism program (GraphPad Software, Inc) is used for the calculation of EC50 values out of the obtained dose-response curves. Viability is compared of proliferating cells grown in the absence of the inducer Ponasterone A, versus viability of cells arrested by the expression of ectopic p27Kip1 induced by Ponasterone A.
Representative values for anti-proliferation/cytotoxicity [measured as −log EC50 (mol/l)] determined in the aforementioned assays follow from the following tables B1, B2 and B3, in which the numbers of the compounds correspond to the numbers of the examples.

CCOc1ccc2[nH]c3c(c2c1)C[C@@]1(C)C(=O)N(CCCN2CCN(C)CC2)C(=O)N1[C@@H]3c1cccc(O)c1 (racemic) [Example 229, (3aSR,10RS)-6-Ethoxy-10-(3-hydroxy-phenyl)-3a-methyl-2-[3-(4-methyl-piperazin-1-yl)-propyl]-3a,4,9,10-tetrahydro-2,9,10a-triaza-cyclopenta[b]fluorene-1,3-dione] and C#CCNCCCN1C(=O)N2[C@H](c3cccc(O)c3)c3[nH]c4ccc(OCC)cc4c3C[C@@]2(C)C1=O (racemic) [Example 225, (3aSR,10RS)-6-Ethoxy-10-(3-hydroxy-phenyl)-3a-methyl-2-(3-prop-2-ynylamino-propyl)-3a,4,9,10-tetrahydro-2,9,10a-triaza-cyclopenta[b]fluorene-1,3-dione] fall in the same range of EC50: 39.8 to 251 nM for the first, 39.8 to 251 nM for the second.

COc1cc2c3c([nH]c2cc1F)[C@@H](c1cccc(O)c1)N1C(=O)N(CCNC(C)C)C(=O)[C@]1(C)C3 (racemic) [Example 250, (3aSR,10RS)-7-Fluoro-10-(3-hydroxy-phenyl)-2-(2-isopropylamino-ethyl)-6-methoxy-3a-methyl-3a,4,9,10-tetrahydro-2,9,10a-triaza-cyclopenta[b]fluorene-1,3-dione] and C=CCN(C)CCCN1C(=O)N2[C@H](c3cccc(O)c3)c3[nH]c4cc(F)c(OC)cc4c3C[C@@]2(C)C1=O (racemic) [Example 317, (3aSR,10RS)-2-[3-(Allyl-methyl-amino)-propyl]-7-fluoro-10-(3-hydroyx-phenyl)-6-methoxy-3a-methyl-3a,4,9,10-tetrahydro-2,9,10a-triaza-cyclopenta[b]fluorene-1,3-dione] cannot be ordered by EC50: no more than 39.8 nM for the first, 39.8 to 251 nM for the second.

C[C@@]12Cc3c([nH]c4ccc(Cl)cc34)[C@@H](c3cccc(O)c3)N1C(=O)N(CCCN1CCCC1)C2=O (racemic) [Example 172, (3aSR,10RS)-6-Chloro-10-(3-hydroxy-phenyl)-3a-methyl-2-(3-pyrrolidin-1-yl-propyl)-3a,4,9,10-tetrahydro-2,9,10a-triaza-cyclopenta[b]fluorene-1,3-dione] and COCCNCCCN1C(=O)N2[C@H](c3cccc(O)c3)c3[nH]c4ccc(Cl)cc4c3C[C@@]2(C)C1=O (racemic) [Example 185, (3aSR,10RS)-6-Chloro-10-(3-hydroxy-phenyl)-2-[3-(2-methoxy-ethylamino)-propyl]-3a-methyl-3a,4,9,10-tetrahydro-2,9,10a-triaza-cyclopenta[b]fluorene-1,3-dione] cannot be ordered by EC50: no more than 39.8 nM for the first, no more than 39.8 nM for the second.

CCN(CCOC)CCN1C(=O)N2[C@H](c3cccc(O)c3)c3[nH]c4ccc(Br)cc4c3C[C@@]2(C)C1=O (racemic) [Example 380, (3aSR,10RS)-6-Bromo-2-{2-[ethyl-(2-methoxy-ethyl)-amino]-ethyl}-10-(3-hydroxy-phenyl)-3a-methyl-3a,4,9,10-tetrahydro-2,9,10a-triaza-cyclopenta[b]fluorene-1,3-dione] and CCN(CCOC)CCN1C(=O)N2[C@H](c3cccc(O)c3)c3[nH]c4ccc(OC(F)F)cc4c3C[C@@]2(C)C1=O (racemic) [Example 289, (3aSR,10RS)-6-(1,1-Difluoro-methoxy)-2-{2-[ethyl-(2-methoxy-ethyl)-amino]-ethyl}-10-(3-hydroxy-phenyl)-3a-methyl-3a,4,9,10-tetrahydro-2,9,10a-triaza-cyclopenta[b]fluorene-1,3-dione] fall in the same range of EC50: 39.8 to 251 nM for the first, 39.8 to 251 nM for the second.

C[C@@]12Cc3c([nH]c4ccc(Br)cc34)[C@@H](c3cccc(O)c3)N1C(=O)N(CCNCC1CC1)C2=O (racemic) [Example 376, (3aSR,10RS)-6-Bromo-2-[2-(cyclopropylmethyl-amino)-ethyl]-10-(3-hydroxy-phenyl)-3a-methyl-3a,4,9,10-tetrahydro-2,9,10a-triaza-cyclopenta[b]fluorene-1,3-dione] and CCOc1ccc2[nH]c3c(c2c1)C[C@@]1(C)C(=O)N(CCNC2CCC2)C(=O)N1[C@@H]3c1cccc(O)c1 (racemic) [Example 155, (3aSR,10RS)-2-(2-Cyclobutylamino-ethyl)-6-ethoxy-10-(3-hydroxy-phenyl)-3a-methyl-3a,4,9,10-tetrahydro-2,9,10a-triaza-cyclopenta[b]fluorene-1,3-dione] cannot be ordered by EC50: no more than 39.8 nM for the first, no more than 39.8 nM for the second.

C=CCNCCN1C(=O)N2[C@H](c3cccc(O)c3)c3[nH]c4ccc(OC(F)F)cc4c3C[C@@]2(C)C1=O (racemic) [Example 274, (3aSR,10RS)-2-(2-Allylamino-ethyl)-6-(1,1-difluoro-methoxy)-10-(3-hydroxy-phenyl)-3a-methyl-3a,4,9,10-tetrahydro-2,9,10a-triaza-cyclopenta[b]fluorene-1,3-dione] and CNCCCN1C(=O)N2[C@H](c3cccc(O)c3)c3[nH]c4ccc(OC(F)F)cc4c3C[C@@]2(C)C1=O (racemic) [Example 203, (3aSR,10RS)-6-(1,1-Difluoro-methoxy)-10-(3-hydroxy-phenyl)-3a-methyl-2-(3-methylamino-propyl)-3a,4,9,10-tetrahydro-2,9,10a-triaza-cyclopenta[b]fluorene-1,3-dione] cannot be ordered by EC50: no more than 39.8 nM for the first, 39.8 to 251 nM for the second.

COc1ccc2[nH]c3c(c2c1)C[C@@]1(C)C(=O)N(CCCNC(C)(C)C)C(=O)N1[C@@H]3c1cccc(O)c1 (racemic) [Example 167, (3aSR,10RS)-2-(3-tert-Butylamino-propyl)-10-(3-hydroxy-phenyl)-6-methoxy-3a-methyl-3a,4,9,10-tetrahydro-2,9,10a-triaza-cyclopenta[b]fluorene-1,3-dione] and COc1ccc2[nH]c3c(c2c1)C[C@@]1(C)C(=O)N(CCCNCCO)C(=O)N1[C@@H]3c1cccc(O)c1 [Example 536, (3aS,10R)-2-[3-(2-Hydroxy-ethylamino)-propyl]-10-(3-hydroxy-phenyl)-6-methoxy-3a-methyl-3a,4,9,10-tetrahydro-2,9,10a-triaza-cyclopenta[b]fluorene-1,3-dione] cannot be ordered by EC50: no more than 39.8 nM for the first, no more than 39.8 nM for the second.

CC1CCN(CCN2C(=O)N3[C@H](c4cccc(O)c4)c4[nH]c5ccc(OC(F)F)cc5c4C[C@@]3(C)C2=O)CC1 (racemic) [Example 293, (3aSR,10RS)-6-(1,1-Difluoro-methoxy)-10-(3-hydroxy-phenyl)-3a-methyl-2-[2-(4-methyl-piperidin-1-yl)-ethyl]-3a,4,9,10-tetrahydro-2,9,10a-triaza-cyclopenta[b]fluorene-1,3-dione] and C[C@@]12Cc3c([nH]c4ccc(Br)cc34)[C@@H](c3cccc(O)c3)N1C(=O)N(CCN1CC=CCC1)C2=O (racemic) [Example 395, (3aSR,10RS)-6-Bromo-2-[2-(3,6-dihydro-2H-pyridin-1-yl)-ethyl]-10-(3-hydroxy-phenyl)-3a-methyl-3a,4,9,10-tetrahydro-2,9,10a-triaza-cyclopenta[b]fluorene-1,3-dione] fall in the same range of EC50: 39.8 to 251 nM for the first, 39.8 to 251 nM for the second.

C=CCN(C)CCN1C(=O)N2[C@H](c3cccc(O)c3)c3[nH]c4cc(F)c(Cl)cc4c3C[C@@]2(C)C1=O (racemic) [Example 362, (3aSR,10RS)-2-[2-(Allyl-methyl-amino)-ethyl]-6-chloro-7-fluoro-10-(3-hydroxy-phenyl)-3a-methyl-3a,4,9,10-tetrahydro-2,9,10a-triaza-cyclopenta[b]fluorene-1,3-dione] and COc1cc2c3c([nH]c2cc1F)[C@@H](c1cccc(O)c1)N1C(=O)N(CCN2CC=CCC2)C(=O)[C@]1(C)C3 (racemic) [Example 265, (3aSR,10RS)-2-[2-(3,6-Dihydro-2H-pyridin-1-yl)-ethyl]-7-fluoro-10-(3-hydroxy-phenyl)-6-methoxy-3a-methyl-3a,4,9,10-tetrahydro-2,9,10a-triaza-cyclopenta[b]fluorene-1,3-dione] fall in the same range of EC50: 39.8 to 251 nM for the first, 39.8 to 251 nM for the second.

With COCCNCCCN1C(=O)N2[C@H](c3cccc(O)c3)c3[nH]c4ccc(OC)cc4c3C[C@@]2(C)C1=O [Example 490, (3aS,10R)-10-(3-Hydroxy-phenyl)-6-methoxy-2-[3-(2-methoxy-ethylamino)-propyl]-3a-methyl-3a,4,9,10-tetrahydro-2,9,10a-triaza-cyclopenta[b]fluorene-1,3-dione] the EC50 was no more than 39.8 nM.
